{
  "source": "paper PMC6290777",
  "about": "“Inhalation of the prodrug PI3K inhibitor CL27c improves lung function in asthma and fibrosis” (Nature Communications, 2018)",
  "key": {"PI3Kα": {"target": "T1, PI3Kα (Homo sapiens, UniProt P42336)", "T1 construct": "purchased Nanosyn Biology, Inc., Santa Clara, CA, USA", "T1 sequence (P42336 whole entry, species assumed)": "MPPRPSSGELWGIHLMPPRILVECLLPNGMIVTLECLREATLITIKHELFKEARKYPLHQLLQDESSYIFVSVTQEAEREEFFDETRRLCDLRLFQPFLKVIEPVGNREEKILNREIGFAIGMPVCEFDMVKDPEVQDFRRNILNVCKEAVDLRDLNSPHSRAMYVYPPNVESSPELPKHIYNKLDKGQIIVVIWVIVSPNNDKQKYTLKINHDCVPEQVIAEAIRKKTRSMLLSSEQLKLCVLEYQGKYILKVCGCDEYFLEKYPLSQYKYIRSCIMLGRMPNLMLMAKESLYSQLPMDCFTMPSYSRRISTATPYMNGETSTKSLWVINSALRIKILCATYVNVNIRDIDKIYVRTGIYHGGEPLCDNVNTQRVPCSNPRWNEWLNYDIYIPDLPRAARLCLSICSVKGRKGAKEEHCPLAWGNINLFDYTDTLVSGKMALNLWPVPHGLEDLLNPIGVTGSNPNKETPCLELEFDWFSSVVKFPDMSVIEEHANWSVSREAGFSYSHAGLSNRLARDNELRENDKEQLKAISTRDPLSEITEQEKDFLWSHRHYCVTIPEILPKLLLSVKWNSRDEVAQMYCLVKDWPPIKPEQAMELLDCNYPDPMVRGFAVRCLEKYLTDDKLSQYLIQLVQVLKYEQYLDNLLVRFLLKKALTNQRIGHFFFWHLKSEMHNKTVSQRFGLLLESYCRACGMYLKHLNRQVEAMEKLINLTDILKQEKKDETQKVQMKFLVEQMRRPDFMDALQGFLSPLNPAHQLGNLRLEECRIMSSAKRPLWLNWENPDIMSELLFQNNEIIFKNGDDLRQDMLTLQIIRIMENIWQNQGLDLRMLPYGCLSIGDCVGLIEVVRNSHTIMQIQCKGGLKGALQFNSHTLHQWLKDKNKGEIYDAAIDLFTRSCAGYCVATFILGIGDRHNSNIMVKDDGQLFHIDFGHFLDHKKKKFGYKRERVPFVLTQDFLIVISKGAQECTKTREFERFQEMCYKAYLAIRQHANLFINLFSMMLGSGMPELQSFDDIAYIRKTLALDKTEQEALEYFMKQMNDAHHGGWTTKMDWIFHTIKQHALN", "T1 sequence (P27986 whole entry partner, species assumed)": "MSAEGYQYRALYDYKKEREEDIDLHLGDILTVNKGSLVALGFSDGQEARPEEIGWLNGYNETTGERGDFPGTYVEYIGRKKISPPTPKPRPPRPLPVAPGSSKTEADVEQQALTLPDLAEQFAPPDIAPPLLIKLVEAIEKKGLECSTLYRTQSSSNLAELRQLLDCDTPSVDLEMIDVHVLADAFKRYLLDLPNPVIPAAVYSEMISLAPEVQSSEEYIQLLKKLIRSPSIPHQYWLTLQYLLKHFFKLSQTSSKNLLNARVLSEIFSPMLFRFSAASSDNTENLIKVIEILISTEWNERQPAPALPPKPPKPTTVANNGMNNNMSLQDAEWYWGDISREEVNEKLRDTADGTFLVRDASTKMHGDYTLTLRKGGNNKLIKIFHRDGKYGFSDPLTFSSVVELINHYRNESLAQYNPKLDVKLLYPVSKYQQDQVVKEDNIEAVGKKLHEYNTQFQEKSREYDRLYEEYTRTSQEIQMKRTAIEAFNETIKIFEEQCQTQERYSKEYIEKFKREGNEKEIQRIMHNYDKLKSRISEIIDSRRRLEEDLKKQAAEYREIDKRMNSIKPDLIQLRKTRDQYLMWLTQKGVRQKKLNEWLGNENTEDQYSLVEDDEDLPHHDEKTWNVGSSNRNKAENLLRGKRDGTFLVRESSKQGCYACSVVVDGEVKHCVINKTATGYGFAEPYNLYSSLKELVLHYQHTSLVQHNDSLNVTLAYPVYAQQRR", "assay": "Kinome profiling assay (Nanosyn 250-kinase panel)", "assay_type": "biochemical", "experimental": "Supplementary Figure 2: Kinase selectivity of CL27e\nKinase selectivity of the CL27c active metabolite, CL27e, was evaluated at 0.02 µM and 0.2 µM using the Nanosyn 250-kinase panel. Red color indicates selectivity for PI3Kα, on which CL27e […]\nResults are expressed as mean percentage inhibition for each\n(1 picture or pasted object on this page, not shown here)\nHuman lung fibroblast cell culture\nTwo separate human lung fibroblast cell lines isolated from IPF patients were used: LL97a derived from a person (ATCC, Manassas, USA) and DHLF-IPF (#CC-7231, Lonza, Switzerland). Control cell lines were CCD-16Lu, obtained from a person that died of astrocytoma –a disease unrelated to IPF - (ATCC) and NHLF (#CC-2512; Lonza). […]\nCaliper based assay, the reaction was terminated by addition of EDTA buffer. Substrate and product were separated and quantified electrophoretically using the microfluidic-based and the assay plate was read on Caliper LabChip 3000 Drug Discovery System from Caliper Life Sciences (Walthan, MA, USA). ADP Glo was another method of detection used for some kinase assays where data was obtained by quantifying the intensity of luminescence. For ADP Glo based assay, the reaction was terminated by applying the Promega ADP Glo Kinase Assay kit and the assay plate was read on a LJL Biosystems Analyst HT. […]"}, "[1]": {"tested_on": "fMLP-activated LPS-primed neutrophils", "assay": "ROS production by fMLP-activated LPS-primed neutrophils", "assay_type": "cell-based, mouse", "settings": "fMLP 2.5 μM; CL27c 1 and 10 µM", "experimental": "Production of ROS was determined by primary isolated neutrophils (5 × 10^6/mL) (as described above) with lipopolysaccharide (1 μg/mL) for 1 h and then preincubating them with luminol (20 μg/mL) and horseradish peroxidase (35 μg/mL) in RPMI medium plus 10% FCS. The cells were subsequently stimulated with 2.5 μM formyl-methionyl-leucyl-phenylalanine (fMLP, Sigma-Aldrich), and light emission was recorded every 5 sec for a period of 300 sec in a Berthold MicroLumat Plus luminometer (Berthold Technologies)."}},
  "note": "Where “and” joins values, the source holds several entries; their conditions need not be identical. Identical values can stand only once.",
  "data": [
    {"smiles": "O=C(O)c1cccc(Cn2cc(-c3cccc4c(=O)cc(N5CCOCC5)[nH]c34)nn2)c1", "note": "[CL27e]", "values": [
      {"measurement": "inhibition of PI3Kα", "setting": "PI3Kα; high concentration (0.2 µM), 0.2 µM", "result": "> 80% and 81%"},
      {"measurement": "inhibition of PI3Kα", "setting": "PI3Kα; low concentration (0.02 µM)", "result": 23, "unit": "%"}
    ]},
    {"smiles": "COC(=O)c1cccc(Cn2cc(-c3cccc4c(=O)cc(N5CCOCC5)[nH]c34)nn2)c1", "note": "[CL27c]", "values": [
      {"measurement": "reactive oxygen species production (respiratory burst)", "setting": "[1]", "result": "efficiently and dose-dependently inhibited reactive oxygen species production"}
    ]}
  ]
}
